Tests used:
[1] = Survival, food intake, body weight and general health under chronic dietary supplementation; assay type: in vivo
Method: (§1) The experiment was performed with male C57BI/6 mice (Harlan, Horst, The Netherlands). Animals were individually housed under a 12 hours light/12 hours dark cycle with lights on at 8:00. Food and drinking water were provided ad libitum, except for the period of behavioural testing as described below. The experiment was started with 60 mice, half of which served as control (CON) and half of which received resveratrol in their food from the age of 1 year onwards (RES). Between the ages of 18 and 20 month, spatial learning performance of the animals was studied in a Y-maze test. At the age of 24 month, brains were collected and processed for immunocytochemistry to asses cholinergic parameters and electron microscopy for several cerebrovascular analyses. The procedures concerning animal care and treatment were in accordance with the regulations of the ethical committee for the use of experimental animals of the University of Groningen.
To rule out differences in food intake between animals on a control diet and resveratrol-supplemented diet, food intake and body weight were monitored every two weeks. To establish whether resveratrol provided in the food enters the circulation, a pilot experiment was performed in which blood was collected from mice by decapitation after 1 day and 30 days of supplementation. Plasma concentrations of resveratrol were measured. After 1 day of supplementation, resveratrol levels in the plasma were 88.5 μg/l at the end of the dark phase or active phase, when mice consume most of their food, and 41 μg/l at the end of the light phase or resting phase (n=3 each). After 1 month of supplementation, the levels were 102.7 and 30.7 μg/l at the end of active phase and rest phase, respectively (n=3 each). These measurements confirm that resveratrol ingested via the food indeed entered the circulation, and the levels appeared to fluctuate over the day in a fashion that paralleled food intake. Supplementation of resveratrol via food thus seemed an appropriate and simple method for further studies.
Animals received resveratrol in their food from 1 year of age onwards. […]

aged mice [2] = assay: Open field test (general explorative activity); assay type: in vivo, male C57BI/6 mice; settings: chronic supplementation
Method: as §1, with “The procedures concerning animal care and treatment were in accordance with the regulations of the ethical committee for the use of experimental animals of the University of Groningen.” left out
To examine general explorative activity, mice were subjected to an open-field test for 5 minutes. […] Position and locomotion of the mice was recorded and analyzed with a computerized video tracking system (Ethovision, Noldus Information Technology, Wageningen, The Netherlands). The number of visits and time spend in each of the two zones was determined. […]
(§2) Behavioural performance was statistically analyzed with a one way ANOVA paradigm for repeated measures. Immunocytochemical data and EM data were statistically analyzed with an independent samples T-test (2-tailed). Data are expressed as averages ±S.E.M. P<0.05 was considered as significant.

aged mice [3] = assay: Y-maze spatial learning test; assay type: in vivo, male C57BI/6 mice
Method: as §1
To examine cognitive performance, the mice were subjected to a Y-maze test in which they had to learn the location of a food reward in one of two accessible choice arms. […] The home cages of the mice were equipped with a small sliding door that connected to the starting arm. One of the two test arms was baited with a food reward consisting of small crumbs of the regular food. Food crumbs were also placed below perforations at the end of the two test arms to prevent animals from discriminating between baited and non-baited arms by olfactory cues. […]
The Y-maze test took place during the first half of the light phase between 10:00 and 14:00 in a room adjacent to the home cage room. […] A visit to the baited arm was recorded as a correct trial. […]
as §2

[4] = test system: cholinergic system (nucleus basalis, hippocampus); assay: AChE histochemistry of cholinergic cells and fibres; assay type: in vivo, male C57BI/6 mice; settings: age 24 months, RES versus CON
Method: The experiment was performed with male C57BI/6 mice (Harlan, Horst, The Netherlands). Animals were individually housed under a 12 hours light/12 hours dark cycle with lights on at 8:00. Food and drinking water were provided ad libitum, except for the period of behavioural testing as described below. The experiment was started with 60 mice, half of which served as control (CON) and half of which received resveratrol in their food from the age of 1 year onwards (RES). Between the ages of 18 and 20 month, spatial learning performance of the animals was studied in a Y-maze test. […]
For histology, brain tissue was cryoprotected in 30% sucrose in 0.1 M phosphate buffer for 48 h after which 20 μm sections were cut with a cryostat (Leica CM3050). […] Cells positive for AChE were quantified in sections containing nucleus basalis (around bregma −0.7) and AChE fibre density measurements were performed by a computerized image analysis system Quantimet (Leica) in the dorsal hippocampus.
as §2

hippocampal microvessels = assay: Electron microscopy of the cerebrovascular system; assay type: in vivo, male C57BI/6 mice; settings: age 24 months
Method: as §1
At the age of 24 months animals were sacrificed for histochemical and electronmicroscopical analysis. Mice were anaesthetized by a high dose of pentobarbital sodium salt (Nembutal, 60 mg/kg bodyweight) and transcardially perfused with heparinised saline followed by 4% phosphate buffered paraformaldehyde. After perfusions, brains were removed from the skull and kept in 0.01 M PBS overnight. […]
After perfusion, 18 brains were prepared for electron microscopy using standard methods. […] The samples were then coverslipped with DPX and analyzed under a light microscope. […] Finally, the samples were analyzed and photographs were taken with a Philips TM10 transmission electron microscope.
For quantitative analysis, approximately 4000 μm^2 tissue surface was scanned systematically in each region, and 61±10 microvascular cross sections were examined in each sample. Vascular density was calculated for a standard surface area with the help of the sample grid. In addition to microvessel density, the occurrence of the following features were quantitated: luminal endothelial protrusions, large empty endothelial vacuoles and basement membrane thickening. […] The number of microvessels displaying any of the noted abnormalities was counted and expressed as percentage of the total number of microvessels examined. Capillaries and arterioles were analyzed separately. Since arterioles were encountered at high enough number for statistical analysis only in the hippocampal vascular layer, quantitative analysis of arteriolar condition was performed for this region of the hippocampus alone.
as §2

[5] = hippocampal microvessels, versus control

Oc1ccc(C=Cc2cc(O)cc(O)c2)cc1 [Resveratrol, 3,5,4′-trihydroxystilbene]
food intake, growth and body weight ([1]; mouse, in vivo): did not affect food intake, growth and body weight | general health (regular visual inspection) ([1]; mouse, in vivo): did not indicate obvious differences in general health | mortality rate ([1]; resveratrol in food from 1 year to 24 months of age, RES versus CON): no significant differences in mortality rate | more time spent in the centre of the arena than control animals (aged mice [2]; 5 minutes open field test, p=0.003): about 50% | locomotion (total distance covered) in open field (aged mice [2]; 5 minutes test, RES versus CON): the same amount of locomotion | Y-maze final level of performance on day 3 and retention trial on day 10 (aged mice [3]; RES versus CON): not different | Y-maze performance on the second day of the training phase (aged mice [3]; posthoc test, RES versus CON, p<0.05): performed better then CON animals | Y-maze learning (number of correct choices on day 1 to 3) (aged mice [3]; training phase, age 18-20 months, repeated measures ANOVA p=0.016): improved learning | cholinergic cell number in the nucleus basalis [4]: did not reveal any difference | cholinergic fibre density in the CA1 and dentate gyrus of the hippocampus [4]: unchanged | vascular density in the hippocampus, higher than in control animals (hippocampal microvessels; chronic supplementation, p=0.019): about 15% | number of microvessels with endothelial vacuoles (hippocampal microvessels; hippocampal arterioles, versus control, p=0.05): significantly reduced | occurrence of basement membrane thickening (hippocampal microvessels; [5]): not significantly affected | occurrence of endothelial processes (hippocampal microvessels; [5]): not significantly affected

— patent US20120165412A1, “Use of Resveratrol or Another Hydroxylated Stilbene For Preserving Cognitive Functioning” (N.V. Nutricia, priority 2009, published 2012)
